Assay results: publication PMC7555119, “Characterization of Novel Synthetic Polyphenols: Validation of Antioxidant and Vasculoprotective Activities” (Antioxidants, 2020)
≈ marks a conversion by molar mass, not a printed value. Where “and” joins values, the source holds several entries; their conditions need not be identical. Identical values can stand only once. Like-named read-outs stand apart in the source and are kept apart here.

Columns and labels:
[1] = system: human dermal fibroblasts (HDF); test: Cell viability, AlamarBlue assay; format: cell-based; conditions: range where soluble in DMSO (up to 6 mM)
Experimental: Cytotoxicity of selected antioxidant compounds was assessed using human dermal fibroblasts (HDF, Innoprot, P10856) and an AlamarBlue assay. Human fibroblasts were grown and maintained using Dulbecco’s Modified Eagle Medium high glucose (DMEM, Sigma Aldrich, D6171), supplemented with 10% Fetal Bovine Serum (FBS), 2% L-glutamine and 1% penicillin/streptomycin. Cells were incubated at 37 °C, 95% relative humidity and 5% CO2. Additionally, DMEM-high glucose, HEPES, no phenol red (Gibco, 2106329) was used to prepare the AlamarBlue solution. Stock solutions of the antioxidant compounds 3, 8, 15 and 17 were prepared in dimethyl sulfoxide (DMSO). Compound 7 was not soluble enough in DMSO to obtain a cell viability IC50 value. Serial dilutions of the antioxidant compounds were prepared using the previously mentioned stock solutions and DMEM. Final DMSO concentration was maintained lower than 1% v/v in the cell culture experiments. HDF were seeded at 9 × 10^4 cells/well in a 96-well plate and incubated for 24 h. The medium was replaced by the corresponding antioxidant solutions and incubated for an additional 24 h. Then, compounds were removed, cells were washed with Dulbecco’s Phosphate Buffered Saline (PBS, Sigma Aldrich) and treated with a 10% v/v AlamarBlue (Invitrogen) solution prepared in DMEM without phenol red. After 3 h of incubation, absorbance was monitored at 570 nm by a Multi-Detection Microplate Reader Synergy HT. Cells treated with DMEM without any antioxidant compound were used as the 100% viability control. Eight replicates were used for each antioxidant solution. IC50 values were obtained by a non-linear fit using the software GraphPad Prism 7.

[2] = Oxygen radical absorbance capacity (ORAC) assay
Experimental: The ORAC assay was performed following Ou et al., as modified by Garcés-Rimón et al.. All samples and reagents were dissolved in phosphate buffer (75 mM; pH 7.4). […] The fluorescence was recorded at 40 °C every 55 s for 95 min using a fluorimeter (SpectraMax M2; Molecular Devices, California, USA), with excitation and emission wavelengths of 480 and 520 nm, respectively. All samples were tested in triplicate. ORAC values were expressed as μmol of Trolox equivalents (TE)/μmol of pure compound.

[3] = DPPH free radical scavenging assay (RSA)
Experimental: For the 2,2′-diphenylpicrylhydrazyl (DPPH) assay, antioxidant compounds were dissolved in ethanol with a stock concentration of 4 mM and stirred for 24 h. DPPH (Alfa Aesar) was also dissolved in ethanol at 0.127 mM. Different compound solutions were prepared by serial dilutions of each stock solution ([…]). […] Amounts of 80 µL of each solution and 80 µL of DPPH were added in a 96-well plate. The absorbance was measured at different times (10, 20 and 30 min and 1 and 2 h) by a Multi-Detection Microplate Reader Synergy HT (λMAX = 515 nm). Radical scavenging activity (RSA, %) was calculated using Equation (1) (1) RSA(%)=ADPPH−AEXTRACT/ADPPH·100 where AEXTRACT and ADPPH correspond to the absorbance of DPPH with and without the extracts, respectively. Eight replicates were used for each compound and results were expressed as mean value ± standard deviation. The RSA half-maximal inhibitory concentration (IC50) values were calculated from the relationship curve of RSA versus concentrations by a non-linear fit using the software GraphPad Prism 7.

[4] = Aqueous thermodynamic solubility in H2O (UV); format: physicochemical; conditions: water, thermodynamic from solid
From the text: 4) Log P and aqueous solubility of selected compounds.
Table S2. Theoretical Log P values and aqueous thermodynamic solubility measured for
Comp `Chemical Structure MW LogP Calc Aqueous Solubility a
a Thermodynamic solubility in H 2O (UV). […]

[5] = ABTS radical cation scavenging assay
Experimental: The 2,2′-azino-bis (3-ethylbenzothiazoline-6-sulfonic acid) diammonium salt (ABTS) assay was performed according to Re et al. and modified by Oki et al. for its use in microplates. Samples were diluted in methanol. An ABTS^•+ stock solution was prepared by adding 44 μL of potassium persulfate (140 mmol/L) to a 2.5 mL ABTS^•+ aqueous solution (7 mmol/L). The working solution of the radical ABTS^+ was prepared by diluting the stock solution 1:75 (v/v) in a sodium phosphate buffer (5 mmol/L, pH 7.4) to obtain an absorbance value of 0.7±0.02 at 734 nm. Samples (30 μL) were added to 270 μL of the working solution of ABTS^•+ in a microplate. Absorbance was measured at 734 nm and 30 °C for 20 min, every 5 min in a Synergy HT plate spectrophotometer (Biotek Instruments, Winoosky, VT, USA). A calibration curve was made with Trolox (20–250 μM). All samples were analyzed in triplicate. Results were expressed in μmol TE/μmol of pure compound, as for the ORAC assays.

[6] = system: NADPH oxidase activity in human microvascular endothelial cells (HMEC-1); test: NADPH oxidase activity in endothelial cells stimulated with Angiotensin II; format: cell-based; conditions: HMEC-1, AngII 1 nmol/L 6 h, compound added 30 min before
Experimental: The human microvascular endothelial cells line (HMEC-1) (ATCC®, Middlesex, UK; CRL-3243™) was used. Cells were cultured according to the manufacturer instructions with MCDB131 medium (Corning, NY, USA, Cat. No. 702564) supplemented with 10 ng/mL epidermal growth factor (Sigma-Aldrich, Alcobendas, Spain), 1 μg/mL hydrocortisone (Sigma-Aldrich), 10 mmol/L glutamine (Sigma-Aldrich), 10% fetal bovine serum (FBS, Sigma-Aldrich), 100 U/mL of penicillin and 100 µg/mL of streptomycin. At 80% confluence, cells were serum-deprived for 24 h before stimulation. HMEC were treated with AngII (1 nmol/L for 6 h; Sigma-Aldrich) in the absence or in the presence of the different compounds that were added 30 min before stimulation.
(§1) The O2 production generated by NADPH oxidase was determined by a chemiluminescence assay. Briefly, endothelial cells or aortic segments were homogenized in phosphate buffer (50 mmol/L KH2PO4, 1 mmol/L EGTA, 150 mmol/L sucrose, pH 7.4). The reaction was started by the addition of a lucigenin (5 μmol/L) and NADPH (100 μmol/L; Sigma-Aldrich) mixture to the protein sample in a final volume of 250 μL. Chemiluminescence was determined every 2.4 s for 3 min in a microtiter plate luminometer (Enspire Perkin Elmer). Basal activity in the absence of NADPH was subtracted from each reading and normalized to protein concentration. Data were normalized vs. control situation.

[7] = Stability in aqueous media (H2O/acetonitrile 80:20, HPLC-MS); format: physicochemical
From the text: The solutions were checked by HPLC-MS at regular intervals of time for 60 days. […] The rest of the compounds suffered progressive degradation, with complete disappearance from the solution after 10 or 20 days. The most unstable polyphenol derivatives were 4 and 10 (Figure S1), having both two p-dihydroxy substitutions in the phenyl rings, which points to the rapid and easy oxidation to the p-hydroquinone. From the four compounds with three phenyl rings, only one was stable in aqueous solution (17).

[8] = system: NADPH oxidase activity in segments of aorta from C57BL6/J mice; test: NADPH oxidase activity in aortic segments stimulated ex vivo with IL-1β; conditions: IL-1β 10 ng/mL 6 h
Experimental: Aortic segments from three-month-old C57BL6/J mice were incubated with IL-1β (10 ng/mL, 6 h, Sigma Aldrich) in the presence and in the absence of the different compounds that were added 30 min before stimulation.
as §1

- IC50 ([3]; compound needed to reach 50% RSA after 10 min, read-out: DPPH PSA IC50 10 min): 24.1 µM
- IC50 ([3]; read-out: DPPH PSA IC50 2 h, compound needed to reach 50% RSA after 2 h): 23.3 µM
- solubility [4]: 3100 ± 100 µg/mL (≈ 12 mM)
- stability in aqueous media ([7]; H2O/acetonitrile (80:20%), room temperature, checked for 60 days): sufficiently stable
- Aqueous Stability (%) ([7]; remaining pure compound (HPLC) after two months at room temperature in aqueous solution (+20% acetonitrile)): 90%
- melting point: 192 to 194 °C
Compound: O=C(Cc1ccc(O)c(O)c1)Nc1ccc(O)cc1 [Compound 7, 2-(3′,4′-Dihydroxyphenyl)-N-(4-hydroxyphenyl)acetamide]
- cytotoxic effects [1]: did not show any significant cytotoxic effects
- ORAC [2]: 19.2 ± 0.4 µmol of trolox/µmol of pure compound and 19.2 ± 0. µmol of trolox/µmol of pure compound
- ORAC ([2]; TE: Trolox Equivalents): > 19 TE
- concentration down to which RSA ability is maintained independently of time ([3]; 10 min to 2 h): 0.063 mM
- RSA capacity fold higher compared to resveratrol ([3]; after 10 min, from IC50): 2.8 fold
- RSA percentage ([3]; highest concentration 2 mM, 10 min): 82%
- ABTS [5]: 8.12 ± 0.09 µmol of trolox/µmol of pure compound
- ABTS (values in text) [5]: 8.1 TE
- effect on NADPH oxidase activity induced by Angiotensin II [6]: decreasing NADPH oxidase activity levels in the same order as resveratrol
- effect on NADPH oxidase activity induced by IL-1β [8]: significant inhibition of the IL-1β effects
